Measurements published in article PMC6166404 (Journal of medicinal chemistry, 2018).

Experiments:
MtbIMPDH2ΔCBS = MtbIMPDH2ΔCBS (Mycobacterium tuberculosis, UniProt P9WKI7, R252G); type: biochemical; conditions: for Ki: read-out: Ki,app MtbIMPDH2
[1] = test system: Mtb strain SRMV2.6 (MtbIMPDH2/Y487C); type: cell-based, Mycobacterium tuberculosis
MtbIMPDH2/Y487C = MtbIMPDH2/Y487C (Mycobacterium tuberculosis, UniProt P9WKI7, Y487C); type: biochemical

In the case of `COc1ccc(-c2nc3cc(NC(=O)[C@H](C)Oc4cccc(Cl)c4Cl)ccc3o2)cn1` [Compound 8c, (S)-2-(2,3-dichlorophenoxy)-N-(2-(6-methoxypyridin-3-yl)benzo[d]oxazol-5-yl)propanamide], the “fold increase in MtbIMPDH2ΔCBS inhibitory activity compared to 2” value (MtbIMPDH2ΔCBS) is reported as 5 fold.

In the case of `C[C@H](Oc1cccc(Cl)c1Cl)C(=O)Nc1ccc2oc(-c3ccc(-c4n[nH]c(=O)o4)cc3)nc2c1` [Compound 24, (S)-2-(2,3-Dichlorophenoxy)-N-(2-(4-(5-oxo-4,5-dihydro-1,3,4-oxadiazol-2-yl)phenyl)benzo[d]oxazol-5-yl)propanamide], the “fold increase in activity on replacing the carboxylate” value (shortened to “fold increase in activity”) (MtbIMPDH2ΔCBS) is reported as 2 to 7 fold.

For `C[C@H](Oc1cccc(Cl)c1Cl)C(=O)Nc1ccc2oc(-c3ccc(C(=O)O)cc3)nc2c1` [Compound 22, (S)-4-(5-(2-(2,3-Dichlorophenoxy)propanamido)benzo[d]oxazol-2-yl)benzoic acid], the “susceptibility of strain SRMV2.6” value [1] was “remained sensitive”.

For `C[C@H](Oc1cccc(Cl)c1Cl)C(=O)Nc1ccc2oc(-c3ccc(C#N)cc3)nc2c1` [Compound 8f, (S)-N-(2-(4-Cyanophenyl)benzo[d]oxazol-5-yl)-2-(2,3-dichlorophenoxy)propanamide], the “fold increase in MtbIMPDH2ΔCBS inhibitory activity compared to 2” value (MtbIMPDH2ΔCBS) was 7 fold.

For `C[C@H](Oc1cccc(Cl)c1Cl)C(=O)Nc1ccc2oc(-c3ccc(-c4noc(=O)[nH]4)cc3)nc2c1` [Compound 26, (S)-2-(2,3-Dichlorophenoxy)-N-(2-(4-(5-oxo-4,5-dihydro-1,2,4-oxadiazol-3-yl)phenyl)benzo-[d]oxazol-5-yl)propanamide], the “fold increase in activity” value (MtbIMPDH2ΔCBS) was 2 to 7 fold.

With `C[C@H](Oc1cccc(Cl)c1Cl)C(=O)Nc1ccc2oc(-c3ccc(/C(N)=N\O)cc3)nc2c1` [Compound 25, (S,Z)-2-(2,3-Dichlorophenoxy)-N-(2-(4-(N’-hydroxycarbamimidoyl)phenyl)benzo[d]oxazol-5-yl)propanamide] the “fold increase in activity” value (MtbIMPDH2ΔCBS) was 2 to 7 fold.

In the case of `C[C@H](Oc1cccc(Cl)c1Cl)C(=O)Nc1ccc2oc(-c3cccc(OCC(=O)O)c3)nc2c1` [Compound 19b, (S)-2-(3-(5-(2-(2,3-Dichlorophenoxy)propanamido)benzo[d]oxazol-2-yl)phenoxy)acetic acid], the “fold loss in activity on translocating the alkoxy from para to meta position” value (MtbIMPDH2ΔCBS) is reported as 4 fold.

`COc1ccc(Cc2nc3cc(NC(=O)[C@H](C)Oc4cccc(Cl)c4Cl)ccc3o2)cc1` [Compound 15, (S)-2-(2,3-dichlorophenoxy)-N-(2-(4-methoxybenzyl)benzo[d]oxazol-5-yl)prop-anamide] was tested, and the “factor of reduced activity compared to 8d” value (MtbIMPDH2ΔCBS) was 6.

In the case of `CCOC(=O)COc1ccc(-c2nc3cc(NC(=O)[C@H](C)Oc4cccc(Cl)c4Cl)ccc3o2)cc1` [Compound 18a, Ethyl (S)-2-(4-(5-(2-(2,3-dichlorophenoxy)propanamido)benzo[d]oxazol-2-yl)phenoxy)acetate], the “susceptibility of strain SRMV2.6” value [1] is reported as “remained sensitive”.

For `CCOC(=O)COc1cccc(-c2nc3cc(NC(=O)[C@H](C)Oc4cccc(Cl)c4Cl)ccc3o2)c1` [Compound 18b, Ethyl(S)-2-(3-(5-(2-(2,3-dichlorophenoxy)propanamido)benzo[d]oxazol-2-yl)phenoxy)acetate], the “fold loss in activity on translocating the alkoxy from para to meta position” value (MtbIMPDH2ΔCBS) was 4 fold.

`C[C@H](Oc1cccc(Cl)c1Cl)C(=O)Nc1ccc2oc(-c3ccc(O)cc3)nc2c1` [Compound 8i, (S)-2-(2,3-Dichlorophenoxy)-N-(2-(4-hydroxyphenyl)benzo[d]oxazol-5-yl)propanamide] was tested, and the “fold increase in MtbIMPDH2ΔCBS inhibitory activity compared to 2” value (MtbIMPDH2ΔCBS) was 2 fold.

With `C[C@H](Oc1cccc(Cl)c1Cl)C(=O)Nc1ccc2oc(-c3ccc(OC(F)(F)F)cc3)nc2c1` [Compound 8e, (S)-2-(2,3-Dichlorophenoxy)-N-(2-(4-(trifluoromethoxy)phenyl)benzo[d]oxazol-5-yl)propanamide] the “fold increase in MtbIMPDH2ΔCBS inhibitory activity compared to 2” value (MtbIMPDH2ΔCBS) was 7 fold.

In the case of “(S)-2-(2,3-Dichlorophenoxy)-N-(2-(2-methoxypyridin-4-yl)benzo[d]oxazol-5-yl)propanamide [Compound 8b]”, the “fold increase in MtbIMPDH2ΔCBS inhibitory activity compared to 2” value (MtbIMPDH2ΔCBS) is reported as 5 fold and the Ki (MtbIMPDH2ΔCBS) is reported as 12 ± 0.1 nM.

With “(S)-2-(2,3-Dichlorophenoxy)-N-(2-(2-oxo-1,2-dihydropyridin-4-yl)benzo[d]oxazol-5-yl)propanamide [Compound 30]” the “fold reduction of MtbIMPDH2ΔCBS inhibitory activity compared to 2” value (MtbIMPDH2ΔCBS) was 3 fold and the Ki (MtbIMPDH2ΔCBS) was 220 ± 6 nM.

With `C[C@H](Oc1cccc(Cl)c1Cl)C(=O)Nc1ccc2oc(-c3ccc(C(=O)NN)cc3)nc2c1` [Compound 23, (S)-2-(2,3-Dichlorophenoxy)-N-(2-(4-(hydrazinecarbonyl)phenyl)benzo[d]oxazol-5-yl)propanamide] the “fold increase in activity” value (MtbIMPDH2ΔCBS) was 2 to 7 fold.

With `COc1ccc(-c2nc3cc(NC(=O)[C@H](C)Oc4cccc(Cl)c4Cl)ccc3o2)cc1` [Compound 8d, (S)-2-(2,3-Dichlorophenoxy)-N-(2-(4-methoxyphenyl)benzo[d]oxazol-5-yl)propanamide] the “fold increase in MtbIMPDH2ΔCBS inhibitory activity compared to 2” value (MtbIMPDH2ΔCBS) was 7 fold.

In the case of `C[C@H](Oc1cccc(Cl)c1Cl)C(=O)Nc1ccc2oc(-c3ccc(C(N)=O)cc3)nc2c1` [Compound 28, (S)-4-(5-(2-(2,3-Dichlorophenoxy)propanamido)benzo[d]oxazol-2-yl)benzamide], the “fold increase in activity” value (MtbIMPDH2ΔCBS) is reported as 2 to 7 fold.

`COc1ccc(OC(C)C(=O)Nc2ccc3oc(-c4ccncc4)nc3c2)cc1` (stereo not drawn) [Compound 1, reference compound] was tested, and the “MIC SRMV2.6” value [1] was over 100 µM and the “susceptibility of strain SRMV2.6” value [1] was “resistant”.

For `C[C@H](Nc1cccc(F)c1F)C(=O)Nc1ccc2oc(-c3ccc(C#N)cc3)nc2c1` [Compound 17b, (S)-N-(2-(4-Cyanophenyl)benzo[d]oxazol-5-yl)-2-((2,3-difluorophenyl)amino)propanamide], the “Ratio Ki,app (Y487C) /Ki,app (WT)” value (MtbIMPDH2/Y487C) was 60, the “MIC SRMV2.6” value [1] was over 100 µM and the “susceptibility of strain SRMV2.6” value [1] was “resistant”.
